Experimental data as given in ChEMBL document CHEMBL1156513, “Pharmacologic inhibition of tpl2 blocks inflammatory responses in primary human monocytes, synoviocytes, and blood” (J Biol Chem, 2007).
pIC50: −log10 of the molar value. Each block holds one molecule with its values, some of them ahead of it. Active and inactive are the calls of the source. The rule behind the calls is not given here.

Legend:
[1] = target: T1, Dual specificity mitogen-activated protein kinase kinase 6 (Homo sapiens, UniProt P52564); experiment: Inhibition of human MKK6 by ELISA
T1 sequence (P52564 whole entry): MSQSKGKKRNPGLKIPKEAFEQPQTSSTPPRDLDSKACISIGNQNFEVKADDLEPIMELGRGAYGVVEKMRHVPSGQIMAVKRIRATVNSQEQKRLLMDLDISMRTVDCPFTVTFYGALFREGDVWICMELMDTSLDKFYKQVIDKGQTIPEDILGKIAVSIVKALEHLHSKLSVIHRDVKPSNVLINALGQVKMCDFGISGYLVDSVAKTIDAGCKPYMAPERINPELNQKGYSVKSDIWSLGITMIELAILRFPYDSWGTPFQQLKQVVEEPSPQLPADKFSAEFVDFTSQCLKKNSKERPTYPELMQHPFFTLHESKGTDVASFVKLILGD

Blood [2] = experiment: Inhibition of LPS-induced TNFalpha production in human blood; assay type: functional, tissue-based
HEK293 [3] = experiment: Inhibition of TNF-induced NF-kappaB activation in HEK293 cells upto 10 uM by luciferase assay; assay type: cell-based; conditions: Homo sapiens
[4] = Inhibition of IL-1-beta-induced ERK phosphorylation in primary human monocytes by immunoblot analysis; assay type: cell-based
Homo sapiens [5] = organism: Homo sapiens; experiment: Inhibition of PMA-induced MEK phosphorylation in primary human monocytes by immunoblot analysis; assay type: cell-based
Monocyte [6] = experiment: (§1) Inhibition of IL-1-beta-induced IL12p40 production in primary human monocytes at 5 uM; assay type: functional
[7] = Inhibition of IL-1-beta-stimulated PGE2 production in human RA-FLS cells by immunoblot analysis; assay type: functional, cell-based
RA-FLS [8] = experiment: Inhibition of IL-1-beta-stimulated COX2 expression in human RA-FLS cells after 4 hrs by immunoblot analysis; assay type: functional, cell-based
HeLa [9] = experiment: Inhibition of TNF-alpha-induced ERK phosphorylation in human HeLa cells by immunoblot analysis; assay type: functional, cell-based
[10] = target: T2, MAP kinase-activated protein kinase 2 (Homo sapiens, UniProt P49137); experiment: Inhibition of human MK2 by scintiplate assay
Target sequence in this assay (P49137 whole entry): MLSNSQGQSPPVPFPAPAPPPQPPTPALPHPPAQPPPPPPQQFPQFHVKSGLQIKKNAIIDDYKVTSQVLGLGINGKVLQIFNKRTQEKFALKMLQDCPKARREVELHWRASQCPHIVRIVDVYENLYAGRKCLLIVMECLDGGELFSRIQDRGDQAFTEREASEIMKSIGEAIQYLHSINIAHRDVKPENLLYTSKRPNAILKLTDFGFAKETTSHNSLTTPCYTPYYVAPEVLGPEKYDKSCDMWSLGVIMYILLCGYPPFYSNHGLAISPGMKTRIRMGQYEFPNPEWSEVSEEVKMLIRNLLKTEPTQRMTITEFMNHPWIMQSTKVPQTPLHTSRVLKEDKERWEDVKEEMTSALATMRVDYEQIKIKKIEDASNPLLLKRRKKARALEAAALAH

[11] = Cytotoxicity against primary human monocytes at 5 uM; assay type: cell-based; conditions: monocyte
HeLa [12] = experiment: Cytotoxicity against human HeLa cells; assay type: functional, cell-based
HEK293 [13] = experiment: Inhibition of IL-1-beta-induced NF-kappaB activation in HEK293 cells upto 10 uM by luciferase assay; assay type: cell-based; conditions: Homo sapiens
[14] = Inhibition of human S6K by scintiplate assay
[15] = Inhibition of TNF-alpha-stimulated PGE2 production in human RA-FLS cells by immunoblot analysis; assay type: functional, cell-based
Homo sapiens [16] = organism: Homo sapiens; experiment: Effect on ERK activation in LPS-induced tpl2-/- mouse peritoneal macrophages
[17] = target: RAF proto-oncogene serine/threonine-protein kinase (Homo sapiens, UniProt P04049); experiment: Inhibition of human Raf1
Monocyte [18] = experiment: (§2) Inhibition of LPS-induced IL12p40 production in primary human monocytes; assay type: functional, cell-based
[19] = target: Mitogen-activated protein kinase kinase kinase 8 (Homo sapiens, UniProt P41279); experiment: Inhibition of human Tpl2 by ELISA
[20] = target: T3, NF-kappa-B inhibitor alpha (Homo sapiens) (UniProt P25963); experiment: Inhibition of LPS-induced IkappaBalpha phosphorylation in primary human monocytes upto 5 uM by immunoblot analysis; assay type: cell-based
T3 sequence (whole entry): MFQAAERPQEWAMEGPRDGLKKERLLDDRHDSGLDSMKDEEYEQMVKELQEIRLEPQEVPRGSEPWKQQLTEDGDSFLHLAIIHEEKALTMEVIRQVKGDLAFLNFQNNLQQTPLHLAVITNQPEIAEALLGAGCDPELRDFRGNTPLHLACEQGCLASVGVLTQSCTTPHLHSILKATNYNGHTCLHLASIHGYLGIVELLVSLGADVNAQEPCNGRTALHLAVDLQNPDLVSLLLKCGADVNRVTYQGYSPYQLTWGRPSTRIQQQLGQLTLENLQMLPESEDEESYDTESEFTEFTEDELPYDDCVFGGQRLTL

HeLa [21] = experiment: Inhibition of TNF-alpha-induced IL8 production in human HeLa cells after 4 hrs; assay type: functional, cell-based
[22] = (§3) Inhibition of LPS-induced ERK phosphorylation in primary human monocytes by immunoblot analysis; assay type: cell-based
[23] = target: Protein kinase C alpha type (Homo sapiens, UniProt P17252); experiment: Inhibition of human PKCalpha by scintiplate assay
HeLa [24] = experiment: Inhibition of IL8 production in human Tpl2 expressing HeLa cells after 17 hrs by ELISA; assay type: functional, cell-based
Mus musculus = organism: Mus musculus; experiment: Effect on IL-1-beta-induced ERK phosphorylation in 129S5 mouse thioglycollate elicited peritoneal macrophages
[25] = target: Dual specificity mitogen-activated protein kinase kinase 1 (Oryctolagus cuniculus, UniProt P29678); experiment: Inhibition of rabbit MEK1 by ELISA
Homo sapiens [26] = organism: Homo sapiens; experiment: Inhibition of PMA-induced ERK phosphorylation in primary human monocytes by immunoblot analysis; assay type: cell-based
Monocyte [27] = experiment: as §1; assay type: functional, cell-based
[28] = Inhibition of human JNK1alpha by scintiplate assay
Monocyte [29] = experiment: Inhibition of IL-1-beta-induced TNFalpha production in primary human monocytes; assay type: functional, cell-based
Stromelysin-1 = Stromelysin-1 (Homo sapiens, UniProt P08254); experiment: Inhibition of IL-1-beta-stimulated MMP3 in human RA-FLS cells by immunoblot analysis; assay type: cell-based
[30] = Inhibition of IL-1-beta-stimulated IL8 production in human RA-FLS cells by immunoblot analysis; assay type: functional, cell-based
[31] = target: Mitogen-activated protein kinase 14 (Homo sapiens, UniProt Q16539); experiment: Inhibition of human p38alpha by ELISA
[32] = target: T2, MAP kinase-activated protein kinase 2; experiment: Inhibition of LPS-induced MK2 phosphorylation in primary human monocytes upto 5 uM by immunoblot analysis; assay type: cell-based
Target sequence in this assay (P49137 whole entry, looked up): as the sequence (P49137 whole entry) above

Monocyte [33] = experiment: Inhibition of LPS-induced TNFalpha production in primary human monocytes; assay type: functional, cell-based
[34] = Inhibition of IL-1-beta-stimulated MMP1 in human RA-FLS cells by immunoblot analysis; assay type: functional, cell-based
Monocyte [35] = experiment: as §2; assay type: functional
HeLa [36] = experiment: Inhibition of human MEK phosphorylation in Tpl2 transfected HeLa cells; assay type: cell-based
[37] = Cytotoxicity against human RA-FLS cells at =< 10 uM; assay type: cell-based
Homo sapiens [38] = organism: Homo sapiens; experiment: Inhibition of LPS-induced c-Jun phosphorylation in primary human monocytes upto 5 uM by immunoblot analysis; assay type: cell-based
Blood [39] = experiment: Inhibition of IL-1-beta-induced TNFalpha production in human blood; assay type: functional, tissue-based
[40] = Inhibition of human CaMK2 by ELISA
[41] = (§4) Inhibition of LPS-induced MEK phosphorylation in primary human monocytes by immunoblot analysis; assay type: cell-based
RA-FLS [42] = experiment: Inhibition of IL-1-beta-stimulated PGE2 production in human RA-FLS cells after 4 hrs by ELISA; assay type: functional, cell-based
[43] = target: Proto-oncogene tyrosine-protein kinase Src (Homo sapiens, UniProt P12931); experiment: Inhibition of human Src by ELISA
[44] = Inhibition of IL-1-beta-stimulated IL6 production in human RA-FLS cells by immunoblot analysis; assay type: functional, cell-based
HeLa [45] = experiment: Inhibition of human ERK phosphorylation in Tpl2 transfected HeLa cells; assay type: cell-based
[46] = Inhibition of IL-1-beta-stimulated ERK phosphorylation in shuman RA-FLS cells by immunoblot analysis; assay type: cell-based; conditions: Homo sapiens
[47] = Inhibition of IL-1-beta-induced MEK phosphorylation in primary human monocytes by immunoblot analysis; assay type: cell-based
[48] = target: MAP kinase p38 (Homo sapiens) (UniProt O15264+Q15759+Q16539+P53778); experiment: Inhibition of LPS-induced p38 phosphorylation in primary human monocytes upto 5 uM by immunoblot analysis; assay type: cell-based
[49] = target: T4, Inhibitor of nuclear factor kappa-B kinase subunit beta (Homo sapiens, UniProt O14920); experiment: Inhibition of human IKK-beta by ELISA
T4 sequence (O14920 whole entry): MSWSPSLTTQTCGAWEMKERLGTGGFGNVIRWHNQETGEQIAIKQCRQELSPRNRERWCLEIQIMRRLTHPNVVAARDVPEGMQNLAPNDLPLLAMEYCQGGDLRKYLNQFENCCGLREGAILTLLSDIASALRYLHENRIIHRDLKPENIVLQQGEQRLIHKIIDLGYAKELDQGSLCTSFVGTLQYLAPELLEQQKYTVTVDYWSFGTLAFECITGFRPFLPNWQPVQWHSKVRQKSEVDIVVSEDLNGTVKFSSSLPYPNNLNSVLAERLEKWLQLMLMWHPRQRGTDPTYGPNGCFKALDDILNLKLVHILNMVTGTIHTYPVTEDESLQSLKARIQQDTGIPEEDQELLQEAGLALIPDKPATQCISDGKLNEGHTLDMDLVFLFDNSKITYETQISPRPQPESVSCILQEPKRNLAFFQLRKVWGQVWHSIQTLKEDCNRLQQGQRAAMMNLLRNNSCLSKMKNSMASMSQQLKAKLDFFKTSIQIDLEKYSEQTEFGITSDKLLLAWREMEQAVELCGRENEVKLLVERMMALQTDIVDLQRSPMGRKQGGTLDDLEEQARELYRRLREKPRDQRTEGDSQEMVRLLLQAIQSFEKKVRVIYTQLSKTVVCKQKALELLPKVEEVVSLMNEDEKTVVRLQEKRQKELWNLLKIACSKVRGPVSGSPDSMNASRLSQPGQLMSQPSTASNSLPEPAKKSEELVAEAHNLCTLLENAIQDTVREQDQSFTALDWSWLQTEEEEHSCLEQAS

[50] = Inhibition of human PKA by scintiplate assay
Homo sapiens [51] = organism: Homo sapiens; experiment: as §3; assay type: cell-based
Homo sapiens [52] = organism: Homo sapiens; experiment: as §4; assay type: cell-based

Chain of Mitogen-activated protein kinase kinase kinase 8 (P41279 whole entry): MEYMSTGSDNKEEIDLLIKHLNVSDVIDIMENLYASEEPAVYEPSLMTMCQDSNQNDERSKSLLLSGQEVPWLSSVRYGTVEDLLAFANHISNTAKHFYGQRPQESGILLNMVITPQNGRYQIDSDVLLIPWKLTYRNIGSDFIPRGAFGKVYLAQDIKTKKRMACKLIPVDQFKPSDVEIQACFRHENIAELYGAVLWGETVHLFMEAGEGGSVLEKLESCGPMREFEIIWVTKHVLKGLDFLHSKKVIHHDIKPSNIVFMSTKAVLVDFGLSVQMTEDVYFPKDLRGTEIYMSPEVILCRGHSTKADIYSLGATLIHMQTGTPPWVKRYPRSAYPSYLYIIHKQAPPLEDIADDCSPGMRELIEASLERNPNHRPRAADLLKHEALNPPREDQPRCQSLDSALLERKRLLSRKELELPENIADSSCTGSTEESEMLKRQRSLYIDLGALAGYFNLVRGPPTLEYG
Chain of Dual specificity mitogen-activated protein kinase kinase 1 (P29678 whole entry): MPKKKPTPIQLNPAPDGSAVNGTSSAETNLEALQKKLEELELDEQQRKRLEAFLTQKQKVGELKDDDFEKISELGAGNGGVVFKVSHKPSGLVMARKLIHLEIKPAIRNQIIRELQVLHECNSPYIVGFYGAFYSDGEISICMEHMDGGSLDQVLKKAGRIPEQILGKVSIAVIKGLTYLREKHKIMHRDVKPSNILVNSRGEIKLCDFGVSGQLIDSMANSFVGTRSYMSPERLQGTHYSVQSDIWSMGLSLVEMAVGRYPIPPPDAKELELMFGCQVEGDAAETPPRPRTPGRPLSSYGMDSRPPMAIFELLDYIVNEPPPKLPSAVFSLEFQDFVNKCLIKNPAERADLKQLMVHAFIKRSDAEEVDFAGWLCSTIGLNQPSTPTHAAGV
Chain of Stromelysin-1 (P08254 whole entry): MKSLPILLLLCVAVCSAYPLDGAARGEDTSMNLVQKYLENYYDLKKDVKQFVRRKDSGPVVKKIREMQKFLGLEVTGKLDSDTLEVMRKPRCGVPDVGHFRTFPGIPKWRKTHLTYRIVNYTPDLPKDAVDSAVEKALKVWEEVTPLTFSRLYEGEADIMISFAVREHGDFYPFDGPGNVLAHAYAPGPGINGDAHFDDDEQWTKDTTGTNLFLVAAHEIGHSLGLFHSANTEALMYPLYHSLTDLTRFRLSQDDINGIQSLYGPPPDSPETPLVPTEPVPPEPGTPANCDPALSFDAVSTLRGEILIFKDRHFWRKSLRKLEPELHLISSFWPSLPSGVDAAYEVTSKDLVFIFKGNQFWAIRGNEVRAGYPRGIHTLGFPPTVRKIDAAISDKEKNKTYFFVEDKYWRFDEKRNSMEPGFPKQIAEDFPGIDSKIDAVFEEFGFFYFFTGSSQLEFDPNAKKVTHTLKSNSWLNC
Chain of RAF proto-oncogene serine/threonine-protein kinase (P04049 whole entry): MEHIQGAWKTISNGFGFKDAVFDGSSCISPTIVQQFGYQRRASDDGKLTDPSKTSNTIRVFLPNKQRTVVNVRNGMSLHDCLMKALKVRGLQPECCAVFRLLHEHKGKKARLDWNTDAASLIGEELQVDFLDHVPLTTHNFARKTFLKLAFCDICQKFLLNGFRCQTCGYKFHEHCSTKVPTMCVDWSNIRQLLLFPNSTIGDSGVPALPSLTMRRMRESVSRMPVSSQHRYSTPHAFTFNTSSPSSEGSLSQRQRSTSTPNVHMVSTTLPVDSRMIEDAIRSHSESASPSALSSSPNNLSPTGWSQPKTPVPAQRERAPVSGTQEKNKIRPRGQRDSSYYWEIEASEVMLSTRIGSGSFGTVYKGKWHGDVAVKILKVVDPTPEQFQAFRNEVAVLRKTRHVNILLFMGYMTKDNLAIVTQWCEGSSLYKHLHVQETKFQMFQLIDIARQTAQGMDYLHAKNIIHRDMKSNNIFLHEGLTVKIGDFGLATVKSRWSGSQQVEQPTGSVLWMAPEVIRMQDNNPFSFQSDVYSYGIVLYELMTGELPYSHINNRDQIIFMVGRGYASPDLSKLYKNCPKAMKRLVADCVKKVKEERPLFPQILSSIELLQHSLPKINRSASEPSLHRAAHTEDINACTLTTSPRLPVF
Chain of Mitogen-activated protein kinase 14 (Q16539 whole entry): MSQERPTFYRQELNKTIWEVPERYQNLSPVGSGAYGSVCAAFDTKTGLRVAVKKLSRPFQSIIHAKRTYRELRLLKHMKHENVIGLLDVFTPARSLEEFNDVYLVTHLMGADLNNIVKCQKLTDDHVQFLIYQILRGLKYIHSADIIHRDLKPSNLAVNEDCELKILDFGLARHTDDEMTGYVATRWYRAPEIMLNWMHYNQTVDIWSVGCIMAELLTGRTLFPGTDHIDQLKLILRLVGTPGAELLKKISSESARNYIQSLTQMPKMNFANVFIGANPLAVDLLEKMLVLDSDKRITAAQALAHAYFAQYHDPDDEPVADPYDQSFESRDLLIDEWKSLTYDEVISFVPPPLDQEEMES
Chain of Proto-oncogene tyrosine-protein kinase Src (P12931 2-536 limits assumed): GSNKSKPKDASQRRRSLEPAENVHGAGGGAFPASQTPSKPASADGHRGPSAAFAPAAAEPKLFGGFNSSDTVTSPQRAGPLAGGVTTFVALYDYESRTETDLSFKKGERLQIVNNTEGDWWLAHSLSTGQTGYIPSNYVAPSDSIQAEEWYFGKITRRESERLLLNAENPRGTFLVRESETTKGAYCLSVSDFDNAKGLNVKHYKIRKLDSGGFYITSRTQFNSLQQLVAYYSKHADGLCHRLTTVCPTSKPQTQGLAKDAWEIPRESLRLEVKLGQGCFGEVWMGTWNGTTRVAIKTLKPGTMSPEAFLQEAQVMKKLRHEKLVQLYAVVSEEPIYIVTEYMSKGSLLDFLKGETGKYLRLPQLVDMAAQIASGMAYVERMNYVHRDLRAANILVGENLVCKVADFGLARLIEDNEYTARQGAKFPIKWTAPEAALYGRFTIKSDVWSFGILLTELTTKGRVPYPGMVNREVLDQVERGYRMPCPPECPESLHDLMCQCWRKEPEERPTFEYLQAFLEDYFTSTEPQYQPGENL

pIC50 [1]: < 4.00
pIC50 (Blood [2]): 5.27
pIC50 [4]: 6.52
pIC50 [7]: 6.40
pIC50 (HeLa [9]): 5.60
pIC50 [10]: 4.32
pIC50 [14]: < 4.00
pIC50 [15]: 6.15
Activity (Homo sapiens [16]): inactive
pIC50 [17]: < 4.00
pIC50 (Monocyte [18]): < 5.30
pIC50 [19]: 7.92
Activity [20]: inactive
pIC50 (HeLa [21]): 6.70
pIC50 [22]: 7.00
pIC50 [23]: < 4.00
pIC50 (HeLa [24]): 6.00
Activity (Mus musculus): Dose-dependent effect
pIC50 [25]: < 4.40
pIC50 (Monocyte [27]): < 5.30
pIC50 [28]: 4.19
pIC50 (Monocyte [29]): 6.15
pIC50 (Stromelysin-1): 5.64
pIC50 [30]: 5.10
pIC50 [31]: < 4.00
Activity [32]: inactive
pIC50 (Monocyte [33]): 6.22
pIC50 [34]: 5.40
pIC50 (Blood [39]): 5.14
pIC50 [40]: 4.64
pIC50 [41]: 6.30
pIC50 [43]: < 4.00
pIC50 [44]: 5.16
pIC50 [46]: 6.52
pIC50 [47]: 6.30
Activity [48]: inactive
pIC50 [49]: 4.14
pIC50 [50]: < 4.00
Compound: N#Cc1cnc2c(Cl)cc(NCc3cnc[nH]3)cc2c1Nc1ccc(F)c(Cl)c1
Activity (HEK293 [3]): inactive
Activity (Homo sapiens [5]): inactive
inhibition at 5 µM (Monocyte [6]): 30%
Activity (RA-FLS [8]): Active
Activity [11]: Non-toxic
Activity (HeLa [12]): inactive
Activity (HEK293 [13]): inactive
Activity (Homo sapiens [26]): inactive
inhibition (INH) (Monocyte [35]): 39%
Activity (HeLa [36]): Active
Activity [37]: Non-toxic
Activity (Homo sapiens [38]): inactive
Activity (RA-FLS [42]): Active
Activity (HeLa [45]): Active

Compound: C[C@H](Nc1cc2c(Nc3ccc(F)c(Cl)c3)c(C#N)cnc2cn1)c1ccccc1
Activity (Homo sapiens [51]): inactive
Activity (Homo sapiens [52]): inactive

pIC50 [19]: 7.80
pIC50 [22]: ≥ 6.00
pIC50 [41]: ≥ 6.00
Compound: C[C@@H](Nc1cc2c(Nc3ccc(F)c(Cl)c3)c(C#N)cnc2cn1)c1ccccc1
